From patent US11566007B2, “Ras inhibitors” (Revolution Medicines, Inc., priority 2019, dated 2023) come the findings set out here.

One test addresses NRAS WT (Homo sapiens (Human), UniProt P01111+P62937). Nature of the test: Ras-Raf (BRAF RBD) disruption / FRET / MOA assay, NRAS WT. The following applies: read-out: IC50* NRAS WT FRET data. The test is classed as biochemical. An outline of the steps:
(§1)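 Compounds (30 μM top final, 10-point 3-fold dilutions) incubated 3 h at 25° C with nucleotide-loaded Ras, cyclophilin A and BRAF RBD. Detection with 10 nM anti-His Eu-W1024 and 50 nM anti-GST allophycocyanin over another 1.5 h. Lowered TR-FRET ratio relative to DMSO wells gives IC50.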

Another test concerns NCI-H358 (K-Ras G12C). The experiment in a line: CellTiter-Glo cell viability assay, NCI-H358. It counts as cell-based, human. The settings on record: Homo sapiens, NCI-H358, 120 h, NCI-H358, 5-day treatment; class symbols; read-out: Additional H358 Cell Viability assay data (K-Ras G12C, IC50). In outline: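 Viability measured by CellTiter-Glo luminescence on day 5 following direct addition of compound to plated cells. Values expressed as percent of mean DMSO signal; curves fitted with a four-parameter logistic model.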
On the technique in general: Cellular ATP, detected with luciferase, serves as a proxy for viable cell number.

The next test concerns the target KRAS G12D (Homo sapiens (Human), UniProt P01116+P62937, G12D). The experiment in a line: Ras-Raf (BRAF RBD) disruption / FRET / MOA assay, KRAS G12D. The test is classed as biochemical. The following applies: Ras-Raf disruption/FRET/MOA assay; class symbols; read-out: KRAS G12D FRET data IC50. In outline:
(§2)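 Compound-driven ternary complex of nucleotide-loaded Ras with cyclophilin A, disrupting BRAF RBD binding. 10-point 3-fold dilution from 30 μM final, 3 h at 25° C, then anti-His Eu-W1024 (10 nM) and anti-GST allophycocyanin (50 nM) for 1.5 h. IC50 from TR-FRET ratio decrease versus DMSO.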

The target of another test is NRAS Q61R (Homo sapiens (Human), UniProt P01111+P62937, Q61R). Nature of the test: Ras-Raf (BRAF RBD) disruption / FRET / MOA assay, NRAS Q61R. The settings on record: NRAS Q61R; Ras-Raf disruption/FRET/MOA assay; read-out: IC50* NRAS Q61R FRET data. The test is classed as biochemical. An outline of the steps: as §1
In the next test the target is KRAS G12V (Homo sapiens (Human), UniProt P01116+P62937, G12V). The experiment in a line: Ras-Raf (BRAF RBD) disruption / FRET / MOA assay, KRAS G12V. It counts as biochemical. The settings on record: read-out: IC50* KRAS G12V FRET data. An outline of the steps:
as §2

In the next test the target is KRAS WT (Homo sapiens (Human), UniProt P01116+P62937). The experiment in a line: Ras-Raf (BRAF RBD) disruption / FRET / MOA assay, KRAS WT. It counts as biochemical. The following applies: read-out: IC50* KRAS WT FRET data. In outline: as §2
Another test concerns the target KRAS G12S (Homo sapiens (Human), UniProt P01116+P62937, G12S). The experiment in a line: Ras-Raf (BRAF RBD) disruption / FRET / MOA assay, KRAS G12S. It counts as biochemical. The settings on record: Ras-Raf disruption/FRET/MOA assay; class symbols; read-out: KRAS G12S FRET data IC50. In outline: as §2
A further test has as its target K-Ras G13C (Homo sapiens (Human), UniProt P01116+P62937, G13C). Nature of the test: Ras-Raf (BRAF RBD) disruption / FRET / MOA assay, KRAS G13C. The settings on record: KRAS G13C; Ras-Raf disruption/FRET/MOA assay; read-out: IC50* KRAS G13C FRET data. It counts as biochemical. An outline of the steps: as §2
Another test concerns the target KRAS G13D (Homo sapiens (Human), UniProt P01116+P62937, G13D). The experiment in a line: Ras-Raf (BRAF RBD) disruption / FRET / MOA assay, KRAS G13D. The test is classed as biochemical. The following applies: read-out: IC50* KRAS G13D FRET data. In outline:
as §2

Another test concerns the target NRAS Q61K (Homo sapiens (Human), UniProt P01111+P62937, Q61K). The experiment in a line: Ras-Raf (BRAF RBD) disruption / FRET / MOA assay, NRAS Q61K. It counts as biochemical. The following applies: NRAS Q61K; Ras-Raf disruption/FRET/MOA assay; read-out: IC50* NRAS Q61K FRET data. An outline of the steps: as §1

Chain of NRAS WT (P01111 whole entry): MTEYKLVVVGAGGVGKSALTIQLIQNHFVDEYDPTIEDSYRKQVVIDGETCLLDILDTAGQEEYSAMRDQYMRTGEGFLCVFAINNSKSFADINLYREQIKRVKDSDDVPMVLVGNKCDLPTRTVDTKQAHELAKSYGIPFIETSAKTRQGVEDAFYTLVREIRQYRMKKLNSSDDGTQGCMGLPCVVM
Chain of NRAS WT (P62937 whole entry): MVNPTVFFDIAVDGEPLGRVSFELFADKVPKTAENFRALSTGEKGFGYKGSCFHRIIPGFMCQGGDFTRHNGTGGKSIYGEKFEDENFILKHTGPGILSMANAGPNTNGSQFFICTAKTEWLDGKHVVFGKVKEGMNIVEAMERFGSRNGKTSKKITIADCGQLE
Chain of KRAS G13D (P01116-2 other isoform, or with tags, fused parts or gaps G13D): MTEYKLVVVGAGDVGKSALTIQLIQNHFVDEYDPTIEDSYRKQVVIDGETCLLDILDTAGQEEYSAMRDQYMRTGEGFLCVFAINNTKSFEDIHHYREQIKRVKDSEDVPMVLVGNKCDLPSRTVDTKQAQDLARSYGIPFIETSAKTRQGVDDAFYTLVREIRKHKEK
Chain of KRAS G13D (P62937 whole entry): as the sequence (P62937 whole entry) above
Chain of KRAS G12S (P01116-2 other isoform, or with tags, fused parts or gaps G12S): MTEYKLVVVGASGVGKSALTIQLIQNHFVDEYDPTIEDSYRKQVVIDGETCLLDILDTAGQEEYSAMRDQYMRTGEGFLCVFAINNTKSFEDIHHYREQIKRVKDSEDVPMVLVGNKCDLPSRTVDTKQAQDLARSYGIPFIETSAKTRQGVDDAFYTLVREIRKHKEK
Chain of KRAS G12S (P62937 whole entry): as the sequence (P62937 whole entry) above
Chain of KRAS WT (P01116-2 other isoform, or with tags, fused parts or gaps): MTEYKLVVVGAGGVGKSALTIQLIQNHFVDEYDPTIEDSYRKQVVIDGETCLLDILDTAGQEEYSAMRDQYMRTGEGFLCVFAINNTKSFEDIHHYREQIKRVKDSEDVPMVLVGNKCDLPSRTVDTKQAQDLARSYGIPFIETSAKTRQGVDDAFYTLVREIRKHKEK
Chain of KRAS WT (P62937 whole entry): as the sequence (P62937 whole entry) above
Chain of KRAS G12V (P01116-2 other isoform, or with tags, fused parts or gaps G12V): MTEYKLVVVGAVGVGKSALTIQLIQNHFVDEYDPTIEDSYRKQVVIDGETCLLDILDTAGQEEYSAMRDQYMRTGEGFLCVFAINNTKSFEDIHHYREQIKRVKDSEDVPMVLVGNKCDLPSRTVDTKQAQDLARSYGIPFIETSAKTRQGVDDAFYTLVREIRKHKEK
Chain of KRAS G12V (P62937 whole entry): as the sequence (P62937 whole entry) above
Chain of K-Ras G13C (P01116-2 other isoform, or with tags, fused parts or gaps G13C): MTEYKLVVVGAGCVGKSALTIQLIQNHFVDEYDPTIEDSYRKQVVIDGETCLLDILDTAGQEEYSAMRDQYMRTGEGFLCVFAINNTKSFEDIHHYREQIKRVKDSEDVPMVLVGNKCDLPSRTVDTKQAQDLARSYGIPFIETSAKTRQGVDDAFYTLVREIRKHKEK
Chain of K-Ras G13C (P62937 whole entry): as the sequence (P62937 whole entry) above
Chain of KRAS G12D (P01116-2 other isoform, or with tags, fused parts or gaps G12D): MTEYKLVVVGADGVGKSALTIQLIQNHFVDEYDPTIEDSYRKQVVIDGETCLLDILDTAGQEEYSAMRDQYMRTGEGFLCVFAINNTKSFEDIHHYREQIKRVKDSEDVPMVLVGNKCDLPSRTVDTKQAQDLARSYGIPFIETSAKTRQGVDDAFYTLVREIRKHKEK
Chain of KRAS G12D (P62937 whole entry): as the sequence (P62937 whole entry) above
Chain of NRAS Q61K (P01111 whole entry Q61K): as the sequence (P01111 whole entry) above, with Q61K counted along it
Chain of NRAS Q61K (P62937 whole entry): as the sequence (P62937 whole entry) above
Chain of NRAS Q61R (P01111 whole entry Q61R): as the sequence (P01111 whole entry) above, with Q61R counted along it
Chain of NRAS Q61R (P62937 whole entry): as the sequence (P62937 whole entry) above

A word on the IC50: it is the point on the concentration scale where inhibition reaches its midpoint. On to `C=CC(=O)N1CC[C@H](C(=O)N(C)[C@H](C(=O)N[C@H]2Cc3cccc(c3)-c3ccc4c(c3)c(c(-c3cccnc3[C@H](C)OC)n4CC)CC(C)(C)COC(=O)[C@@H]3CCCN(N3)C2=O)C(C)C(F)(F)F)C1` (stereo partly drawn) [Example A641], for which the IC50 was 1 to 10 µM on NRAS WT; 0.01 to 0.1 µM with NCI-H358 (K-Ras G12C); greater than 10 µM at KRAS G12D; 1 to 10 µM at NRAS Q61R; 1 to 10 µM on KRAS G12V; 1 to 10 µM on KRAS WT. The IC50 on KRAS G12S, on K-Ras G13C, at KRAS G13D and on NRAS Q61K was 1 to 10 µM in each case.
`CCn1c(-c2cccnc2[C@H](C)OC)c2c3cc(ccc31)C1CCCN(C1)C[C@H](NC(=O)[C@@H](COC1CN(C(=O)C#CC(C)(C)N(C)C)C1)C(C)C)C(=O)N1CCC[C@H](N1)C(=O)OCC(C)(C)C2` [Example A646, (2R)-2-(((1-(4-(dimethylamino)-4-methylpent-2-ynoyl)azetidin-3-yl)oxy)methyl)-N-((6^3S,4S)-1^1-ethyl-1^2-(2-((S)-1-methoxyethyl)pyridin-3-yl)-10,10-dimethyl-5,7-dioxo-6^1,6^2,6^3,6^4,6^5,6^6-hexahydro-1^1H-8-oxa-1(5,3)-indola-6(1,3)-pyridazina-2(3,1)-piperidinacycloundecaphane-4-yl)-3-methylbutanamide]: the IC50 on NRAS WT is greater than 10 µM; in the test on NCI-H358 (K-Ras G12C) it was 0.01 to 0.1 µM; on KRAS G12D, greater than 10 µM; at NRAS Q61R it was greater than 10 µM; at KRAS G12V it was greater than 10 µM; at KRAS WT, greater than 10 µM. Further, the IC50 on KRAS G12S, at K-Ras G13C, on KRAS G13D and on NRAS Q61K was greater than 10 µM each time.
For the compound `C=CC(=O)C1CC[C@H](C(=O)N(C)[C@H](C(=O)N[C@H]2Cc3nsc(n3)-c3ccc4c(c3)c(c(-c3cccnc3[C@H](C)OC)n4CC)CC(C)(C)COC(=O)[C@@H]3CCCN(N3)C2=O)C(C)C)C1` (stereo partly drawn) [Example A694], the IC50 fell in the range of 1 to 10 µM on NRAS WT; 0.01 to 0.1 µM in the test on NCI-H358 (K-Ras G12C); 1 to 10 µM at KRAS G12D; 1 to 10 µM at NRAS Q61R; 1 to 10 µM on KRAS G12V; 1 to 10 µM on KRAS WT. The IC50 at KRAS G12S lay in the range of 1 to 10 µM; on K-Ras G13C, 0.1 to 1 µM; at KRAS G13D, 1 to 10 µM; at NRAS Q61K, 0.1 to 1 µM.
